Experimental data from US7700375B2, “Fluorescent labeling of specific protein targets in vitro and in vivo” (Valorisation-Recherche, LP, priority 2004, dated 2010).
Converted amounts (≈) assume the structure as drawn.

Columns and labels:
diCys-Fos [1] = molecular target: T1, diCys-Fos (Homo sapiens, UniProt P01100, C204S/L161C); assay: Protein labeling in vitro, SDS-PAGE with UV illumination; format: biochemical; design: the C99S mutant of a fragment of Fos; conditions: 0.242 mM protein, 0.5 mM of 20 or 0.05 mM of 13, 25° C. overnight
Procedure: (§1) As mentioned in the introduction, an α-helical protein was designed to bear two cysteine residues, separated by a distance complementary to that between the maleimide groups of the designated fluorogen. The protein chosen as a starting point for this design was the C99S mutant of a fragment of Fos,^21 a known α-helical protein^22 whose recombinant expression has been published.^23 Site-directed mutagenesis was then performed^20,35 to introduce a cysteine residue (L56C), separated by two turns of the α-helical motif from the native Cys49, positioning the protein's only two thiol groups approximately 10 Å apart.^36 Although at higher concentrations, Fos is known to form a homodimer,^22 the distance between the intermolecular cysteine residues in this putative homodimer would render their reaction with a single fluorogen molecule impossible. […]
(§2) Purified mCys-Fos and diCys-Fos were then tested in vitro for their ability to react with fluorogens 13 and 20. After incubation of 0.242 mM protein with 0.5 mM of 20 or 0.05 mM of 13 at 25° C. overnight, glycerol was added and the reaction mixtures were analyzed by SDS-PAGE using UV illumination and then Coomassie blue staining. […]

diCys-Fos [2] = molecular target: T1, diCys-Fos; assay: Labeling in lysate of E. coli cells expressing diCys-Fos, SDS-PAGE; format: biochemical; conditions: overnight at 25° C.
Procedure: The specificity of the dithiol addition reaction of 20 with diCys-Fos in the presence of other proteins was also confirmed through a simple in vitro experiment. The lysate of E. coli cells expressing diCys-Fos was allowed to react with 20 overnight at 25° C. prior to analysis by SDS-PAGE.

Solubility = format: physicochemical
Procedure: (§3) Comparison of the fluorescent properties^34 of the four different parent fluorogens (and their corresponding thiol adducts) studied herein (see Table 2) substantiates our retention of compounds 13 and 20 as candidates for further tests with proteins.
(§4) Finally, we wished to determine if fluorogens such as 13 and 20 were cytotoxic. […] Furthermore, even at 300 μM 20, the limit of its solubility in cell culture, 70% of COS cells were still viable (FIG. 8). […] The convenience of the application of this fluorescent labeling method is obvious from the low cytoxocity of 20, even at concentrations 30 times greater than those necessary for efficient labeling.

diCys-Fos [3] = molecular target: T1, diCys-Fos; assay: Protein labeling in living COS cells expressing diCys-Fos fused to RBD of Raf; format: cell-based; design: the C99S mutant of a fragment of Fos; expressed in transfected cells; host or cells: COS cells
Procedure: The ultimate proof of principle for this method is its successful application to labeling a specific protein in living eukaryotic cells. To test for this potential, our diCys-Fos probe protein was genetically fused to RBD, the Ras-binding domain of Raf, and COS cells were then transfected with the expression plasmid for this fusion protein. A solution of 20 was then added to cultures of COS cells expressing diCys-Fos as well as mock COS cells transfected with an empty expression plasmid.

[4] = Fluorescence spectral properties of fluorogens and their ethanethiol adducts; format: physicochemical; conditions: 10:90 DMSO: water
Procedure: For the application of this fluorogenic reaction to the detection of thiols and dithiols, two important criteria are the fluorescence intensity of the thiol addition product and the ratio of its fluorescence compared to its parent fluorogen. We studied the effect of electron withdrawing and donating substituants on these criteria by preparing the derivatives of fluorogen 4 shown in Scheme 1. Fluorogen 5, bearing an electron withdrawing ester group, was prepared according to a protocol similar to that used for fluorogen 4, but using an ester-substituted maleic anhydride derived by oxidation of dimethyl L-tartrate according to a published procedure.^31 Fluorogen 6 bears an electron donating methyl group and was obtained in similar yield by adaptation of the standard literature protocol,^25 using citraconic anhydride. The reaction of 5 and 6 with ethanethiol in DMSO led to the formation of thiol adducts 8 and 9, whose fluorescence was characterized as shown in Table 1. Even from this small series, certain tendencies are apparent. Increasing the electron donating capacity of the substituent appears to have a significant effect on the absorbance maximum corresponding to the wavelength of excitation, increasing by 37 nm from 8 to 9. Although the emission wavelength increases very slightly over the same series, the net effect on the Stokes shift is a significant decrease with increasing electron donating capacity of the substituent.
as §3
The following material were obtained from Aldrich and were used without further purification: 2-hydroxy-5-nitrobenzaldehyde, N-acetylglycine, maleic anhydride, p-nitrophenylacetic acid, L-aspartic acid dimethyl ester hydrochloride, citraconic anhydride, dimethyl L-tartrate, dimethyl malonate. All reactions were carried out under an atmosphere of dry nitrogen employing conventional bench-top techniques except for reactions with thiols. ^13C-NMR and ^1H-NMR spectra were recorded on AMXR400 or AMX300 spectrometers and were referenced to the residual proton or ^13C signal of the solvent. Mass spectra were determined by FAB+ ionization on an AutoSpecQ spectrometer at the Regional Mass Spectrometry Centre at the Université de Montréal. Infrared spectra were recorded on a Perkin-Elmer (FTIR) spectrometer. Melting points (uncorrected) were determined on a Unimelt Tomas-Hoover or on a Gallenkamp meting point apparatus. Fluorescence spectra were recorded using a Varian Cary Eclipse fluorimeter and gel electrophoresis was carried out on a SpectraPhoresis 100 apparatus.

COS cells = assay: Cytotoxicity, MTT and PI assays; format: cell-based
Procedure: as §4

mCys-Fos = molecular target: T2, mCys-Fos (Homo sapiens, UniProt P01100, C204S); assay: Protein labeling in vitro, SDS-PAGE with UV illumination; format: biochemical; conditions: 0.242 mM protein, 0.5 mM of 20 or 0.05 mM of 13, 25° C. overnight
T2 construct: the C99S mutant of a fragment of Fos; His-tag (N); made in house; host or cells: XL1-blue E. coli
Procedure: as §1, §2

T1 sequence (P01100 118-211 L161C/C204S limits assumed): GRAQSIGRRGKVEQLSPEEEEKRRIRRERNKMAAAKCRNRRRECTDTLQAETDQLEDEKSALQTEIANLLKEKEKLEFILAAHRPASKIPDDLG
T2 sequence (P01100 118-211 C204S limits assumed): as the sequence (P01100 118-211 L161C/C204S limits assumed) above, with C44L counted along it

COC(=O)C[C@@H](C(=O)OC)N1C(=O)c2cc(N3C(=O)C=CC3=O)cc3cc(N4C(=O)C=CC4=O)cc(c23)C1=O [Compound 20, N-(3,6-Dimaleimidyl-1,8-naphthalyl)-L-aspartic acid dimethyl ester]
fluorescent labeling of diCys-Fos (diCys-Fos [1]): efficiently fluorescently labeled | selectivity for diCys-Fos in the presence of other cytosolic proteins (diCys-Fos [2]): selectivity of 20 for its designated target protein | solubility in water / aqueous DMSO (Solubility): soluble in aqueous solutions containing as little as 5% DMSO | solubility (Solubility; cell culture, plasma or biological fluid, read-out: limit of solubility in cell culture): 300 µM (≈ 159 µg/mL) | fluorescence of COS cells expressing diCys-Fos vs mock COS cells (diCys-Fos [3]; 10 μM, 20 minutes, room temperature): significant difference in fluorescence | cell permeability (diCys-Fos [3]; COS cells): confirming the cell permeability | Stokes shift [4]: 67 nm | λem (emission band) [4]: 525-650 nm | λem, wavelength corresponding to center of Full Width at Half Maximum of emission band [4]: 578 nm | λexc [4]: 511 nm | IF Ratio ([4]; ratio of areas under emission bands of fluorogen and thiol adduct): 8.5 | viable COS cells (COS cells; 300 μM): 70% | concentration with low cytotoxicity relative to that necessary for efficient labeling (COS cells; COS cells): 30 times | percentage of viable COS cells (COS cells; concentrations of up to 30 μM): unaffected | fluorescent labeling of mCys-Fos (mCys-Fos): is not
